Experimental data as given in publication PMC11009956, “Initial Primer Synthesis of a DNA Primase Monitored by Real-Time NMR Spectroscopy” (Journal of the American Chemical Society, 2024).
Positions count from the first letter of the chain named.

Legend:
functional pRN1 primase [1] = target: T1, functional pRN1 primase (Saccharolobus islandicus, UniProt Q54324); assay: […] CP-MAS solid-state NMR; 1H-detected hNH NMR; format: biochemical; conditions: formed in situ from ATP^N and dGTP^C on primase-DNA complex; triphosphate remains bound to HBD
T1 construct: primase part (catalytic domain plus HBD), residues 40-370, monomeric, expressed in E. coli BL21(DE3) Codon+, Ni2+ IMAC purified (tag not described)

functional pRN1 primase [2] = target: T1, functional pRN1 primase; assay: time-resolved solution NMR of dinucleotide formation; format: biochemical; conditions: primase-DNA complex
[3] = target: T2, helix-bundle domain (HBD) of pRN1 primase (Saccharolobus islandicus, UniProt Q54324); assay: 1H-15N HSQC NMR titration; format: binding; conditions: 10 mM MgCl2, pH 7.0, 298 K
T2 construct: helix-bundle domain, residues 256-370, expressed in E. coli BL21(DE3) Codon+, Ni2+ IMAC purified (tag not described)

[4] = target: T2, helix-bundle domain (HBD) of pRN1 primase; assay: 1H-15N HSQC NMR; format: binding; conditions: HBD-DNA complex
functional pRN1 primase [5] = target: T1, functional pRN1 primase; assay: […] CP-MAS solid-state NMR; 1H-15N HSQC NMR; format: biochemical; conditions: primase-DNA complex with dGTP^C; 10 mM MgCl2, pH 7.0; slow substrate
[6] = target: T3, catalytic domain of pRN1 primase (Saccharolobus islandicus, UniProt Q54324); assay: 1H-15N HSQC NMR titration; format: binding; conditions: free catalytic domain, no DNA; 10 mM MgCl2, pH 7.0, 298 K; near active site (V148, S150)
T3 construct: catalytic domain, residues 40-248, expressed in E. coli BL21(DE3) Codon+, Ni2+ IMAC purified (tag not described)

functional pRN1 primase [7] = target: T4, functional pRN1 primase (Saccharolobus islandicus, UniProt Q54324, H145A); assay: […] CP-MAS solid-state NMR; format: binding; conditions: catalytically inactive mutant; primase-DNA complex with ATP^N; 10 mM MgCl2, pH 7.0
T4 construct: primase part (catalytic domain plus HBD), residues 40-370, monomeric, expressed in E. coli BL21(DE3) Codon+, Ni2+ IMAC purified (tag not described)

functional pRN1 primase [8] = target: T1, functional pRN1 primase; assay: […] CP-MAS solid-state NMR; format: biochemical; conditions: primase-DNA complex with ATP^N; 10 mM MgCl2, pH 7.0, 281 K; bound by HBD, slow substrate
[9] = target: T5, pRN1 primase helix-bundle domain (HBD) (Sulfolobus islandicus (plasmid pRN1), UniProt Q54324 256-370); assay: NMR (1H-15N HSQC); ATP + dGTP, 10 mM Mg2+, 298 K; HBD titrations: 25 mM sodium phosphate pH 7.0, 75 mM NaCl, 10 mM MgCl2, 298 K, 0.1 mM HBD, HBD:DNA 1:1.1; solid-state NMR on sedimented complex at 278-309 K; conditions: protein: recombinant; single strand
T5 sequence: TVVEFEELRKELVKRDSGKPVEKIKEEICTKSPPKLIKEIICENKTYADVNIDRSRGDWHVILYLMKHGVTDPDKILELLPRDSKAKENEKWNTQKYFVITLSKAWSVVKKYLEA

pRN1 primase H145A = target: T6, pRN1 primase H145A (Sulfolobus islandicus (plasmid pRN1), UniProt Q54324 40-370, H145A); assay: solid-state NMR (31P CP-MAS, hNH); ATPN + dGTPC, Mg2+; HBD titrations: 25 mM sodium phosphate pH 7.0, 75 mM NaCl, 10 mM MgCl2, 298 K, 0.1 mM HBD, HBD:DNA 1:1.1; solid-state NMR on sedimented complex at 278-309 K; conditions: protein: recombinant; single strand
T6 sequence: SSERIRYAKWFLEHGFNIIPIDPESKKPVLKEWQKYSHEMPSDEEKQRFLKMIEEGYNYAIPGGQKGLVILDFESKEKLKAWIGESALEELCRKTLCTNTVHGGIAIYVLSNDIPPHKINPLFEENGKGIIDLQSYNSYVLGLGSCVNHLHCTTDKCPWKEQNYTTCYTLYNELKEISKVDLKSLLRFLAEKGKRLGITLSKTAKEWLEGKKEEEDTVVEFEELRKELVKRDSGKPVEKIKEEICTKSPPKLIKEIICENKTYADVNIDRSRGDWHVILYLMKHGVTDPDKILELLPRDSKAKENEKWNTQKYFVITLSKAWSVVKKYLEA

[10] = target: T7, pRN1 primase (functional primase) (Sulfolobus islandicus (plasmid pRN1), UniProt Q54324 40-370); assay: NMR (1H-15N HSQC; 31P CP-MAS); ATPC + dGTPC; HBD titrations: 25 mM sodium phosphate pH 7.0, 75 mM NaCl, 10 mM MgCl2, 298 K, 0.1 mM HBD, HBD:DNA 1:1.1; solid-state NMR on sedimented complex at 278-309 K; conditions: protein: recombinant; single strand
T7 sequence: T6 sequence with A106H

T1 sequence (Q54324 entry or part of it): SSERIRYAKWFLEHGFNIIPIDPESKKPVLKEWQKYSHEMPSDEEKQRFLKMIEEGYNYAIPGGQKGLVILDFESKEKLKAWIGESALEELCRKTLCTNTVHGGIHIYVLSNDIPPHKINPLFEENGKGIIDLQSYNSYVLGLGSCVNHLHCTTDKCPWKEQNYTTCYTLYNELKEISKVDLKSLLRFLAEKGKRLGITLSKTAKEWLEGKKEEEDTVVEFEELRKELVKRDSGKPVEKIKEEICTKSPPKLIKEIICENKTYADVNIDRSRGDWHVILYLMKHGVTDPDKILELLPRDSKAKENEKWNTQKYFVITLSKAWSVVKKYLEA
T3 sequence (Q54324 entry or part of it): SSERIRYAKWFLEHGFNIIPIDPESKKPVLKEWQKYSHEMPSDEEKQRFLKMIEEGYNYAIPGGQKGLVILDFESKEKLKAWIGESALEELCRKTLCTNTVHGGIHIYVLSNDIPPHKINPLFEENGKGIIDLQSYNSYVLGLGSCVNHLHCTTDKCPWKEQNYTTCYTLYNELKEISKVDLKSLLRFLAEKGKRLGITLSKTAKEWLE

Nc1nc2c(ncn2[C@H]2C[C@H](O)[C@@H](COP(=O)(O)O[C@H]3[C@@H](O)[C@H](n4cnc5c(N)ncnc54)O[C@@H]3COP(=O)(O)OP(=O)(O)NP(=O)(O)O)O2)c(=O)[nH]1
31P CP-MAS solid-state NMR; 1H-detected hNH NMR (functional pRN1 primase [1]): We attribute this initial increase to dinucleotide formation and subsequent binding to pRN1 primase

Nc1ncnc2c1ncn2[C@@H]1O[C@H](COP(=O)(O)OP(=O)(O)OP(=O)(O)O)[C@@H](O)[C@H]1O [ATP]
time-resolved solution NMR of dinucleotide formation (functional pRN1 primase [2]; co-substrate dGTP): dinucleotide formation with the cognate NTPs was terminated within several minutes | 1H-15N HSQC NMR titration ([3]; HBD-DNA complex, two ATP bound): The data reveal that HBD binds one ATP and one dGTP

Nc1ncnc2c1ncn2[C@@H]1O[C@H](COP(=O)(O)OP(=O)(O)CP(=O)(O)O)[C@@H](O)[C@H]1O [ATP^C]
1H-15N HSQC NMR ([4]; added together with dGTP^C): both ATP^C and dGTP^C were rapidly added to the HBD-DNA^CT complex | 31P CP-MAS solid-state NMR; 1H-15N HSQC NMR (functional pRN1 primase [5]): indeed showing the bound dGTP^C and ATP^C as well as the DNA

Nc1nc2c(ncn2[C@@H]2O[C@H](COP(=O)(O)OP(=O)(O)OP(=O)(O)O)[C@@H](O)[C@H]2O)c(=O)[nH]1 [GTP]
1H-15N HSQC NMR titration ([3]; HBD-DNA complex with ATP): it could bind to the HBD domain in the same manner as for the dGTP substrate

Nc1ncnc2c1ncn2[C@H]1C[C@H](O)[C@@H](COP(=O)(O)OP(=O)(O)OP(=O)(O)O)O1 [dATP]
1H-15N HSQC NMR titration [6]: addition of dATP to the catalytic domain resulted in visible CSPs of V148 and S150

Nc1nc2c(ncn2[C@H]2C[C@H](O)[C@@H](COP(=O)(O)OP(=O)(O)OP(=O)(O)O)O2)c(=O)[nH]1 [dGTP]
time-resolved solution NMR of dinucleotide formation (functional pRN1 primase [2]; co-substrate ATP): active primase bound to DNA^CT and the cognate NTPs (ATP and dGTP) | 1H-15N HSQC NMR titration ([3]; HBD-DNA complex with ATP, displaces one ATP): titration of dGTP in a solution of HBD-DNA^CT-2ATP led to the substitution of one ATP

Nc1nc2c(ncn2[C@H]2C[C@H](O)[C@@H](COP(=O)(O)OP(=O)(O)CP(=O)(O)O)O2)c(=O)[nH]1 [dGTP^C]
1H-15N HSQC NMR ([4]; added together with ATP^C): both ATP^C and dGTP^C were rapidly added to the HBD-DNA^CT complex | 31P CP-MAS solid-state NMR (functional pRN1 primase [7]): wt primase and the mutant H145A bound to DNA^CT, ATP^N and dGTP^C | 31P CP-MAS solid-state NMR (functional pRN1 primase [8]): The isolated resonances of bound dGTP^C decrease in the solid state

CTGTGCTCA (ssDNA) [DNACT (GTG-motif template)]
binding result [9]: binds | binding result (pRN1 primase H145A): binds | binding result [10]: binds
